From patent US20160166536A1, “COMBINATION THERAPY FOR THE TREATMENT OF CANCER” (NORTHWESTERN UNIVERSITY, priority 2014, published 2016)

How the values were obtained:
Assay type in all cases: cell-based
HS-578T cells = assay: MTS proliferation assay, HS-578T cells on TCPS; conditions: 300 nM CYC065 alone, 5 nM Eribulin alone or their combination, 48 h, FIG. 2B
Protocol: (§1) The ability of a composition including Eribulin and CYC065 to inhibit inhibiting tumor cell proliferation of triple-negative breast cancer cells was evaluated in three different cell lines having the triple-negative phenotype: MDA-MB-231 (FIG. 2A), […] (FIG. 2B) and MDA-MB-436 (FIG. 2C). The cells were seeded on tissue culture plates and cultured for ˜18 h. The cells were then contacted with 300 nM CYC065 alone, 5 nM Eribulin alone or a combination of 300 nM CYC065 and 5 nM Eribulin for 48 h.
(§2) MDA-MB-231, HS-578T and MDA-MB-436 cells lines were seeded on TCPS at 5000 cells/well and cultured for ˜18 h. They were then treated with 300 nM CYC065 and 5 nM Eribulin or their combination for 48 h. Proliferation was quantified using the MTS assay. […] (N≧4 for all groups.) Data was analyzed using one-way ANOVA and comparison between groups post ANOVA was performed using Tukey HSD test.

MDA-MB-436 cells = assay: MTS proliferation assay, MDA-MB-436 cells on TCPS; conditions: 300 nM CYC065 alone, 5 nM Eribulin alone or their combination, 48 h, FIG. 2C
Protocol: as §1, §2

MDA-MB-231 cells = assay: MTS proliferation assay, MDA-MB-231 cells on tissue culture plates (2D TCPS); conditions: 48 h
Protocol: To evaluate the effectiveness of Eribulin and CYC065 in inhibiting tumor cell proliferation of triple-negative breast cancer cells, the breast cancer cell line MDA-MB-231 having the triple-negative phenotype was tested. MDA-MB-231 cells were seeded on tissue culture plates and cultured for ˜18 h. Cells were treated with different doses of either drug [Eribulin (0.1 nM-100 nM); CYC065 (50 nM-1000 nM)] for 48 h. Proliferation was quantified using the MTS assay.
as §1
MDA-MB-231 cells were seeded on 2D TCPS at 5000 cells/well and cultured for ˜18 h. […] Proliferation was quantified using the MTS assay.
as §2, with “They were then treated with 300 nM CYC065 and 5 nM Eribulin or their combination for 48 h.” left out

C=C1C[C@@H]2CC[C@@]34C[C@H]5O[C@H]6[C@@H](O3)[C@H]3O[C@H](CC[C@@H]3O[C@H]6[C@H]5O4)CC(=O)C[C@@H]3[C@@H](OC)[C@@H](C[C@H](O)CN)O[C@H]3C[C@H]3O[C@@H](CC[C@@H]1O2)C[C@@H](C)C3=C [Eribulin, 2-(3-Amino-2-hydroxypropyl)hexacosahydro-3-methoxy-26-methyl-20,27-bis(methylene)11,15-18,21-24,28-triepoxy-7,9-ethano-12,15-methano-9H,15H-furo(3,2-i)furo(2′,3′-5,6) pyrano(4,3-b)(1,4)dioxacyclopentacosin-5-(4H)-one]
inhibition of tumor cell proliferation (HS-578T cells): inhibited tumor cell proliferation | inhibition of tumor cell proliferation (MDA-MB-436 cells): inhibited tumor cell proliferation | inhibition of tumor cell proliferation (MDA-MB-231 cells; 300 nM CYC065 alone, 5 nM Eribulin alone or their combination, FIG. 2A): inhibited tumor cell proliferation | inhibition of cell proliferation, dose response (MDA-MB-231 cells; Eribulin 0.1 nM-100 nM, CYC065 50 nM-1000 nM, FIGS. 1A, 1B): inhibit proliferation in the nM range
